Patent publication US20250353820A1, “ANTIVIRAL PYRAZOLOPYRIDINONE COMPOUNDS” (Novartis AG, priority 2019, published 2025)

Molecular target: human HSV DNA polymerase UL30 (Human herpesvirus 1 (strain 17) (HHV-1) (Human herpes simplex virus 1), UniProt P04293)
Experiment: biochemical
Settings: 625 pM HSV polymerase, 20 minutes at room temperature; read-out: HSV-polymerase Biochemical IC50

| Compound | IC50 [nM] |
| --- | --- |
| Cn1nc(C(=O)NCc2ccc(C#N)cc2)c2c1C(=O)N(CC1(S(=O)(=O)C(C)(C)COC(F)(F)CN)CC1)CC2 [Example 85, 6-((1-((1-(2-Amino-1,1-difluoroethoxy)-2-methylpropan-2-yl)sulfonyl)cyclopropyl)methyl)-N-(4-cyanobenzyl)-1-methyl-7-oxo-4,5,6,7-tetrahydro-1H-pyrazolo[3,4-c]pyridine-3-carboxamide] | 49 |
| Cn1nc(C(=O)NCc2ccc(C#N)cc2)c2c1C(=O)N(CC1(S(=O)(=O)C(C)(C)COCC(C)(C)O)CC1)CC2 [Example 86, N-(4-Cyanobenzyl)-6-((1-((1-(2-hydroxy-2-methylpropoxy)-2-methylpropan-2-yl)sulfonyl)cyclopropyl)methyl)-1-methyl-7-oxo-4,5,6,7-tetrahydro-1H-pyrazolo[3,4-c]pyridine-3-carboxamide] | 159 |
| Cn1nc(C(=O)NCc2ccc(Cl)cc2)c2c1C(=O)N(CC1(S(=O)(=O)C(C)(C)COCCO)CC1)CC2 [Example 88, N-(4-Chlorobenzyl)-6-((1-((1-(2-hydroxyethoxy)-2-methylpropan-2-yl)sulfonyl)cyclopropyl)methyl)-1-methyl-7-oxo-4,5,6,7-tetrahydro-1H-pyrazolo[3,4-c]pyridine-3-carboxamide] | 39 |
| Cn1nc(C(=O)NCc2ccc(C#N)cc2)c2c1C(=O)N(CC1(S(=O)(=O)C3(COCCN)CC3)CC1)CC2 [Example 96, 6-((1-((1-((2-aminoethoxy)methyl)cyclopropyl)sulfonyl)cyclopropyl)methyl)-N-(4-cyanobenzyl)-1-methyl-7-oxo-4,5,6,7-tetrahydro-1H-pyrazolo[3,4-c]pyridine-3-carboxamide] | 20 |
| CNCCOCC(C)(C)S(=O)(=O)C1(CN2CCc3c(C(=O)NCc4ccc(C#N)cc4)nn(C)c3C2=O)CC1 [Example 101, N-(4-Cyanobenzyl)-1-methyl-6-((1-((2-methyl-1-(2-(methylamino)ethoxy)propan-2-yl)sulfonyl)cyclopropyl)methyl)-7-oxo-4,5,6,7-tetrahydro-1H-pyrazolo[3,4-c]pyridine-3-carboxamide] | 32 |
| Cn1nc(C(=O)NCc2ccc(C#N)cc2)c2c1C(=O)N(CC1(S(=O)(=O)C(C)(C)COC3CNC3)CC1)CC2 [Example 102, 6-((1-((1-(Azetidin-3-yloxy)-2-methylpropan-2-yl)sulfonyl)cyclopropyl)methyl)-N-(4-cyanobenzyl)-1-methyl-7-oxo-4,5,6,7-tetrahydro-1H-pyrazolo[3,4-c]pyridine-3-carboxamide] | 42 |
| Cn1nc(C(=O)NCc2ccc(C#N)cc2)c2c1C(=O)N(CC1(S(=O)(=O)C(C)(C)COCC(C)(C)N)CC1)CC2 [Example 103, 6-((1-((1-(2-Amino-2-methylpropoxy)-2-methylpropan-2-yl)sulfonyl)cyclopropyl)methyl)-N-(4-cyanobenzyl)-1-methyl-7-oxo-4,5,6,7-tetrahydro-1H-pyrazolo[3,4-c]pyridine-3-carboxamide] | 117 |
| CN(C)CCOCC(C)(C)S(=O)(=O)C1(CN2CCc3c(C(=O)NCc4ccc(C#N)cc4)nn(C)c3C2=O)CC1 [Example 104, N-(4-Cyanobenzyl)-6-((1-((1-(2-(dimethylamino)ethoxy)-2-methylpropan-2-yl)sulfonyl)cyclopropyl)methyl)-1-methyl-7-oxo-4,5,6,7-tetrahydro-1H-pyrazolo[3,4-c]pyridine-3-carboxamide] | 108 |
| CNC(=O)C(C)(C)S(=O)(=O)C1(CN2CCc3c(C(=O)NCc4ccc(Cl)cc4)nn(C)c3C2=O)CC1 [Example 110, N-(4-Chlorobenzyl)-1-methyl-6-((1-((2-methyl-1-(methylamino)-1-oxopropan-2-yl)sulfonyl)cyclopropyl)methyl)-7-oxo-4,5,6,7-tetrahydro-1H-pyrazolo[3,4-c]pyridine-3-carboxamide] | 166 |
| Cn1nc(C(=O)NCc2ccc(C#N)cc2)c2c1C(=O)N(CC1(S(=O)(=O)C3(CCO)CC3)CC1)CC2 [Example 117, N-(4-Cyanobenzyl)-6-((1-((1-(2-hydroxyethyl)cyclopropyl)sulfonyl)cyclopropyl)methyl)-1-methyl-7-oxo-4,5,6,7-tetrahydro-1H-pyrazolo[3,4-c]pyridine-3-carboxamide] | 59 |
| Cn1nc(C(=O)NCc2ccc(C#N)cc2)c2c1C(=O)N(CC1(S(=O)(=O)CC(C)(C)O)CC1)CC2 [Example 118, N-(4-Cyanobenzyl)-6-((1-((2-hydroxy-2-methylpropyl)sulfonyl)cyclopropyl)methyl)-1-methyl-7-oxo-4,5,6,7-tetrahydro-1H-pyrazolo[3,4-c]pyridine-3-carboxamide] | 412 |
| Cn1nc(C(=O)NCc2ccc(Cl)cc2)c2c1C(=O)N(CC1(S(N)(=O)=O)CC1)CC2 [Example 121, N-(4-Chlorobenzyl)-1-methyl-7-oxo-6-((1-sulfamoylcyclopropyl)methyl)-4,5,6,7-tetrahydro-1H-pyrazolo[3,4-c]pyridine-3-carboxamide] | 671 |
| CN(C)/C=N/S(=O)(=O)C1(CN2CCc3c(C(=O)NCc4ccc(Cl)cc4)nn(C)c3C2=O)CC1 [Example 122, (E)-N-(4-Chlorobenzyl)-6-((1-(N-((dimethylamino)methylene)sulfamoyl)cyclopropyl)methyl)-1-methyl-7-oxo-4,5,6,7-tetrahydro-1H-pyrazolo[3,4-c]pyridine-3-carboxamide] | 324 |
| Cn1nc(C(=O)NCc2ccc(C#N)cc2)c2c1C(=O)N(CC1(S(=O)(=O)N3CCOCC3)CC1)CC2 [Example 124, N-(4-Cyanobenzyl)-1-methyl-6-((1-(morpholinosulfonyl)cyclopropyl)methyl)-7-oxo-4,5,6,7-tetrahydro-1H-pyrazolo[3,4-c]pyridine-3-carboxamide] | 121 |
| Cn1nc(C(=O)NCc2ccc(C#N)cc2)c2c1C(=O)N(CC1(S(=O)(=O)N3CCC(O)CC3)CC1)CC2 [Example 125, N-(4-Cyanobenzyl)-6-((1-((4-hydroxypiperidin-1-yl)sulfonyl)cyclopropyl)methyl)-1-methyl-7-oxo-4,5,6,7-tetrahydro-1H-pyrazolo[3,4-c]pyridine-3-carboxamide] | 136 |
| Cn1nc(C(=O)NCc2ccc(C#N)cc2)c2c1C(=O)N(CC1(S(=O)(=O)N3CC[C@@H](O)C3)CC1)CC2 [Example 126, (R)-N-(4-Cyanobenzyl)-6-((1-((3-hydroxypyrrolidin-1-yl)sulfonyl)cyclopropyl)methyl)-1-methyl-7-oxo-4,5,6,7-tetrahydro-1H-pyrazolo[3,4-c]pyridine-3-carboxamide] | 84 |
| Cn1nc(C(=O)NCc2ccc(C#N)cc2)c2c1C(=O)N(CC1(S(=O)(=O)N3CC[C@H](O)C3)CC1)CC2 [Example 127, (S)-N-(4-Cyanobenzyl)-6-((1-((3-hydroxypyrrolidin-1-yl)sulfonyl)cyclopropyl)methyl)-1-methyl-7-oxo-4,5,6,7-tetrahydro-1H-pyrazolo[3,4-c]pyridine-3-carboxamide] | 67 |
| Cn1nc(C(=O)NCc2ccc(C#N)cc2)c2c1C(=O)N(CC1(S(=O)(=O)NC3CC3)CC1)CC2 [Example 129, N-(4-cyanobenzyl)-6-((1-(N-cyclopropylsulfamoyl)cyclopropyl)methyl)-1-methyl-7-oxo-4,5,6,7-tetrahydro-1H-pyrazolo[3,4-c]pyridine-3-carboxamide] | 213 |
